Molecular target: T1, SIRT1 (Homo sapiens, UniProt Q96EB6)
T1 construct: His-tag (N); made in house; host or cells: E. coli BL21(DE3), T7-promoter vector
T1 sequence (Q96EB6 1-747): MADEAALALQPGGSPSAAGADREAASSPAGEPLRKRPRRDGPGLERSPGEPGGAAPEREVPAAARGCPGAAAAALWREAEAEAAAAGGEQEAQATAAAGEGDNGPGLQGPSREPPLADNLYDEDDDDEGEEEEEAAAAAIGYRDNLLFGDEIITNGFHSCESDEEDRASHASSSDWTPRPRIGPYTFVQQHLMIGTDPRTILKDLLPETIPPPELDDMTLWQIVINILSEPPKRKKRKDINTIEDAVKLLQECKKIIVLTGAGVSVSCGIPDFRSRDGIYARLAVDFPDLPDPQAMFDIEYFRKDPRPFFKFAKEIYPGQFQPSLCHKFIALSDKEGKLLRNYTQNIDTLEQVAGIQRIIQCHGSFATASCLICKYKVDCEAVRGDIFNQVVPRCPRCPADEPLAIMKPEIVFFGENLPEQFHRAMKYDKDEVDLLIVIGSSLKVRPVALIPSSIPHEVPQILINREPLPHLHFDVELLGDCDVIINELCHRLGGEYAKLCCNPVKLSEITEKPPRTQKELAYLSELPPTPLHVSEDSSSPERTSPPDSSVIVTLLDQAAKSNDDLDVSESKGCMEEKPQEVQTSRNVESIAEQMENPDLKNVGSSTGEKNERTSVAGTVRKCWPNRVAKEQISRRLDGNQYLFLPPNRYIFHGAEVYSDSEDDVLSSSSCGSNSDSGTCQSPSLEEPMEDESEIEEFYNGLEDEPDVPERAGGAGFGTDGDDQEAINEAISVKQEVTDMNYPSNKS
Test: Mass spectrometry based assay for modulators of SIRT1 activity (deacetylation of p53-based acetylated peptide)
Assay type: biochemical
Details: for EC1.5: concentration of test compound that results in 150% activation of SIRT1, 0.5 μM peptide substrate, 120 μM βNAD+, 10 nM SIRT1, 25 min, 25° C.; for Emax: percent maximum fold activation of SIRT1
How it was run: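 Reaction: 10 nM His-tagged human SIRT1 (E. coli-expressed) with 0.5 μM 5TMR-labelled acetylated p53-derived peptide and 120 μM NAD+, 25 min at 25 °C, pH 8 Tris-acetate buffer; formic acid quench. Deacetylation quantified by mass spectrometry against a DMSO control; EC1.5 = concentration giving 150% activation.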

SMILES	EC1.5	Emax
O=C(Nc1nc(CN2CCOCC2)cs1)c1nccn2cc(-c3ccc(F)c(F)c3)nc12 [Compound 194]	B (EC1.5 1-25 uM)	> 200%
O=C(Nc1cccc(CN2CCOCC2)n1)c1cccn2cc(-c3cc(F)ccc3F)nc12 [Compound 201]	A (EC1.5<1.0 uM)	> 200%
O=C(Nc1ccccn1)c1nccn2cc(-c3ccccc3OC(F)(F)F)nc12 [Compound 186]	B (EC1.5 1-25 uM)	> 200%
O=C(Nc1ncc(CN2CCOCC2)s1)c1cccn2cc(-c3cccc(C(F)(F)F)c3)nc12 [Compound 134, N-(5-(morpholinomethyl)thiazol-2-yl)-2-(3-(trifluoromethyl)phenyl)imidazo[1,2-a]pyridine-8-carboxamide]	A (EC1.5<1.0 uM)	> 200%

Next, values leading:

EC1.5	Emax	SMILES
B (EC1.5 1-25 uM)	> 200%	O=C(Nc1nc(CN2CCOCC2)cs1)c1cccn2cc(-c3ccc(C(F)F)cc3)nc12 [Compound 204]
C (EC1.5>25 uM)	< 200%	O=C(Nc1ccccn1)c1cccn2cc(-c3ccc(C(F)F)cc3)nc12 [Compound 203]
B (EC1.5 1-25 uM)	> 200%	O=C(Nc1nccs1)c1cccn2cc(-c3cccc(CN4CCCC4)c3)nc12 [Compound 256]
C (EC1.5>25 uM)	< 200%	Cc1ccc(-c2nc3c(C(=O)Nc4nccs4)cccn3n2)cn1 [Compound 210, 2-(6-methylpyridin-3-yl)-N-(thiazol-2-yl)-[1,2,4]triazolo[1,5-a]pyridine-8-carboxamide]
C (EC1.5>25 uM)	< 200%	Cc1nc(C)c(-c2nc3c(C(=O)Nc4ccccn4)cccn3n2)s1 [Compound 230]

Source: patent US20110077248A1, “IMIDAZOPYRIDINE AND RELATED ANALOGS AS SIRTUIN MODULATORS” (Sirtris Pharmaceuticals, Inc., priority 2008, published 2011)
